{"source": "patent US20210196654A1", "about": "“METHOD OF TREATING CONDITIONS” (Clexio Biosciences Ltd., priority 2019, published 2021)", "key": {"Sprague Dawley rats": {"tested_on": "Sprague Dawley rats", "assay": "Repeated dose 28 day toxicity study", "assay_type": "in vivo, rat", "conditions": "28 days oral gavage"}, "liver of Crl:CD(SD) rats": {"tested_on": "liver of Crl:CD(SD) rats", "assay": "In vivo single cell gel electrophoresis (comet) assay in liver", "conditions": "for lower benchmark dose (BMDL50): single slide median Tail Intensity, PROAST"}, "NMDA receptor": {"tested_on": "NMDA receptor", "conditions": "Ebert et al (1997); cited from earlier work"}, "male Sprague Dawley rats": {"tested_on": "male Sprague Dawley rats", "assay": "7-day forced swim test", "assay_type": "in vivo, rat", "conditions": "for decrease in immobility time: 7 daily doses, test 30 min after dosing", "description": "Groups of, 6-7 week old, male Sprague Dawley rats were administered esketamine by intraperitoneal injection and their behavioral despair assessed by a forced swim test. The animals, in cohorts of 10, were administered either a single dose of 15mg/kg esketamine, 7 daily doses of either 7.5 or 15 mg/kg esketamine or a vehicle control, and the test performed 30 minutes after dosing. Statistical evaluation was performed using an ordinary One-Way ANOVA, t Test and an Uncorrected Fisher's LSD comparisons test."}, "[1]": {"tested_on": "human peripheral blood lymphocytes (HPBL)", "conditions": "for structural or numerical (polyploid or endoreduplicated cells) aberrations: non-activated 4 and 20-hour exposure, 60, 120, 238 μg/mL", "description": "The clastogenic potential of esketamine was evaluated in the in vitro mammalian chromosome aberration test using human peripheral blood lymphocytes (HPBL) in both the absence and presence of an induced metabolic activation system (the 9000 g supernatant [S9] microsomal fraction of liver homogenate from rats exposed to Aroclor-1254).\nThe study was conducted in 2 phases, with a preliminary toxicity test used to determine the appropriate concentrations for the definitive chromosomal aberration assay. Water was used as a negative (vehicle) control. Toxicity (defined as >45% reduction in MI relative to the vehicle control) was evaluated at 9 concentrations, ranging from 0.0238 to 238 μg/ml, after exposure of HPBL to esketamine for 20 hours in the absence of S9 activation, or for 4 hours, either in the presence or absence of S9 activation, followed by a 16-hour recovery period.\nThe definitive chromosome aberration assay evaluated HPBL cells after exposure to esketamine for 20 hours in the absence of S9 activation, or for 4 hours, either in the presence of absence of S9 activation, followed by a 16-hour recovery. Positive controls for chromosomal aberrations in non-activated and S9-activated evaluations, respectively, consisted of mitomycin C (MMC, 0.6 and 0.3 μg/mL for the 4- and 20-hour exposures, respectively) and cyclophosphamide (CP, 2.5, 5, and 7.5 μg/mL). […] Initially, the doses selected for evaluation of chromosomal aberrations were 60, 120, and 238 μg/mL for the non-activated 4- and 20-hour treatment conditions; and 30, 60, and 200 μg/mL for the S9-activated 4-hour treatment condition."}, "[2]": {"conditions": "Oye et al (1992); cited from earlier work"}, "[3]": {"assay": "Single dose crossover study in healthy volunteers, pharmacokinetics", "conditions": "both, human, plasma; for AUC(0-inf): AUC0-inf; for AUC(0-inf) / AUC(0-t) / Cmax: geometric mean; for AUC(0-t): AUC0-t; for Cmax: 15 subjects; for half-life: t1/2, geometric mean; for Tmax: median", "from_the_text": "A randomized, open-label 4-way crossover study in 16 healthy male and female subjects was held wherein said subjects were placed in a randomly assigned order and administered esketamine. Each subject was assigned to 1 of 4 treatment sequences according to a randomization code such that 4 subjects were assigned to each treatment sequence. There was a wash-out period of at least 7 days between dosing periods with doses consisting of either oral or intravenous esketamine hydrochloride. The study consisted of an eligibility screening period of 28 days, 4 study periods involving administration of a single dose of esketamine hydrochloride followed by safety assessments with blood sampling for PK purposes up to 72 hours after study drug administration, discharge at 72 hours after study drug administration and a follow-up visit 7-14 days after the last PK blood sample was taken on Day 4."}, "[4]": {"conditions": "cited from earlier work"}, "[5]": {"conditions": "iv, 0.3 mg/kg, plasma analyte after single dose esketamine 0.3 mg/kg iv"}, "[6]": {"conditions": "po, 20 mg, plasma analyte after single dose esketamine 20 mg oral solution"}, "[7]": {"conditions": "po, 20 mg, plasma analyte after single dose esketamine 20 mg oral tablet"}, "[8]": {"conditions": "po, 100 mg, plasma analyte after single dose esketamine 100 mg oral tablet"}}, "note": "Where two headings read alike, the source gives them in different places.", "data": [{"smiles": "CN[C@]1(c2ccccc2Cl)CCCCC1=O", "note": "[esketamine, (2S)-2-(2-Chlorophenyl)-2-(methylamino) cyclohexanone]", "values": [{"measurement": "effects on clinical signs, body weights, food consumption, ophthalmology, motor activity, functional observational battery, clinical pathology or anatomic pathology", "setting": "Sprague Dawley rats", "result": "no esketamine -related effects"}, {"measurement": "mortality", "setting": "Sprague Dawley rats; males 6, 10, 30, females 2, 10, 20 mg/kg/day", "result": "no mortality"}, {"measurement": "macroscopic examination", "setting": "liver of Crl:CD(SD) rats; after 3 doses", "result": "no test item related lesions"}, {"measurement": "group mean and median % TI values vs historical control range", "setting": "liver of Crl:CD(SD) rats; female rats, 25 and 50 mg/kg/day", "result": "outside of the current vehicle historical control range"}, {"measurement": "median % TI in liver vs vehicle control", "setting": "liver of Crl:CD(SD) rats; female rats, 25 and 50 mg/kg/day oral, 3 doses, p<0.001", "result": "Statistically significant increases"}, {"measurement": "lower benchmark dose (BMDL50)", "setting": "liver of Crl:CD(SD) rats; female rats", "result": 9.83, "unit": "mg/kg/day"}, {"measurement": "DNA strand breaks in the liver, conclusion", "setting": "liver of Crl:CD(SD) rats; male and female rats, oral gavage", "result": "evidence of causing an increase in DNA strand breaks"}, {"measurement": "Hedgehog cells in liver", "setting": "liver of Crl:CD(SD) rats; male or female rats, any dose level", "result": "No Hedgehog cells were observed"}, {"measurement": "group mean and median % TI values vs historical control range", "setting": "liver of Crl:CD(SD) rats; male rats, 75 mg/kg/day", "result": "outside of the current vehicle historical control range"}, {"measurement": "median % tail intensity (TI) in liver vs vehicle control", "setting": "liver of Crl:CD(SD) rats; male rats, 75 mg/kg/day oral, 3 doses, p<0.001", "result": "Statistically significant increases"}, {"measurement": "lower benchmark dose (BMDL50)", "setting": "liver of Crl:CD(SD) rats; male rats", "result": 27.31, "unit": "mg/kg/day"}, {"measurement": "liver histopathological examination", "setting": "liver of Crl:CD(SD) rats; some male animals, 75 mg/kg/day", "result": "Increased hepatocellular mitotic figures"}, {"measurement": "affinity for the NMDA receptor relative to (R)-ketamine", "setting": "NMDA receptor", "result": 5, "unit": "times"}, {"measurement": "decrease in immobility time", "setting": "male Sprague Dawley rats; 7.5 mg/kg ip", "result": 40, "unit": "%"}, {"measurement": "decrease in immobility time", "setting": "male Sprague Dawley rats; 15 mg/kg ip", "result": 60, "unit": "%"}, {"measurement": "extent of effect on immobility time", "setting": "male Sprague Dawley rats; 15 mg/kg ip, single acute dose", "result": "42 % of control"}, {"measurement": "antidepressant-like effect, continuous 7-day treatment vs single dose", "setting": "male Sprague Dawley rats; same dose levels", "result": "stronger antidepressant-like effect than a single acute dose"}, {"measurement": "Cochran-Armitage test, structural aberrations", "setting": "[1]", "result": "positive for a dose response"}, {"measurement": "Toxicity (>45% reduction in MI relative to vehicle control), preliminary toxicity test", "setting": "[1]", "result": "not observed at any dose"}, {"measurement": "induction of structural chromosomal aberrations", "setting": "[1]", "result": "positive"}, {"measurement": "doses at which cytotoxicity was observed", "setting": "[1]; human", "result": "> 200", "unit": "µg/mL"}, {"measurement": "cytotoxicity (>45% reduction in mitotic index), chromosomal aberration assay", "setting": "[1]; non-activated 4- and 20-hour treatment", "result": "not observed at any esketamine dose"}, {"measurement": "structural or numerical (polyploid or endoreduplicated cells) aberrations", "setting": "[1]", "result": "no significant or dose-dependent increases"}, {"measurement": "structural or numerical (polyploid or endoreduplicated cells) aberrations", "setting": "[1]; listed as Esketamine", "result": "negative"}, {"measurement": "potency relative to (R)-ketamine in reducing pain perception and in causing auditory and visual disturbances", "setting": "[2]", "result": 4, "unit": "times"}, {"measurement": "AUC(0-inf)", "setting": "[3]; [5]", "result": 257, "unit": "ng·h/mL"}, {"measurement": "AUC(0-t)", "setting": "[3]; [5]", "result": 249, "unit": "ng·h/mL"}, {"measurement": "Cmax", "setting": "[3]; [5]", "result": 94.5, "unit": "ng/mL"}, {"measurement": "half-life", "setting": "[3]; [5]", "result": 610, "unit": "min"}, {"measurement": "Tmax", "setting": "[3]; [5]", "result": 60, "unit": "min"}, {"measurement": "AUC(0-inf)", "setting": "[3]; [6]", "result": 25.8, "unit": "ng·h/mL"}, {"measurement": "AUC(0-inf)", "setting": "[3]; [7]", "result": 22.5, "unit": "ng·h/mL"}, {"measurement": "AUC(0-t)", "setting": "[3]; [6]", "result": 23.4, "unit": "ng·h/mL"}, {"measurement": "AUC(0-t)", "setting": "[3]; [7]", "result": 20.1, "unit": "ng·h/mL"}, {"measurement": "Cmax", "setting": "[3]; [6]", "result": 16.5, "unit": "ng/mL"}, {"measurement": "Cmax", "setting": "[3]; [7]", "result": 11.9, "unit": "ng/mL"}, {"measurement": "half-life", "setting": "[3]; [6]", "result": 175, "unit": "min"}, {"measurement": "half-life", "setting": "[3]; [7]", "result": 170, "unit": "min"}, {"measurement": "Tmax", "setting": "[3]; [6]", "result": 30, "unit": "min"}, {"measurement": "Tmax", "setting": "[3]; [7]", "result": 45, "unit": "min"}, {"measurement": "AUC(0-inf)", "setting": "[3]; [8]", "result": 181, "unit": "ng·h/mL"}, {"measurement": "AUC(0-t)", "setting": "[3]; [8]", "result": 173, "unit": "ng·h/mL"}, {"measurement": "Cmax", "setting": "[3]; [8]", "result": 65.3, "unit": "ng/mL"}, {"measurement": "half-life", "setting": "[3]; [8]", "result": 460, "unit": "min"}, {"measurement": "Tmax", "setting": "[3]; [8]", "result": 45, "unit": "min"}, {"measurement": "oral bioavailability", "setting": "[4]; Fanta et al (2015)", "result": 8, "unit": "%"}, {"measurement": "oral bioavailability", "setting": "[4]; Peltoniemi et al (2012)", "result": 11, "unit": "%"}]}]}
